One experiment has as its system BJeLR cells. The experiment is described as follows: Erastin-induced death and ROS in BJeLR cells. The experiment is classed as cell-based, human. Conditions: erastin 10 μM, 6-AN 200 μM. The method, then: The day before the experiment, 200,000 cells/well were seeded in 6-well dishes (Corning Inc., Corning, N.Y.). The day of the experiment, cells were treated with test compounds for the indicated times, then harvested by trypsinization, resuspended in 500 μL Hanks Balanced Salt Solution (HBSS, Gibco, Invitrogen Corp., Carlsbad, Calif.) containing either H2DCFDA (25 μM), C11-BODIPY(581/591) (2 μM) or MitoSOX (5 μM) (all from Molecular Probes, Invitrogen) and incubated for 10 minutes at 37° C. in a tissue culture incubator. Cells were then resuspended in 500 μL of fresh HBSS, strained through a […] cell strainer (BD Falcon, BD Biosciences, San Jose, Calif.), and analyzed using a flow cytometer (FACSCalibur or Accuri C6, BD Biosciences), which was equipped with 488-nm laser for excitation. Data was collected from the FL1 (H2DCFDA, C11-BODIPY) or FL2 channel (MitoSOX). A minimum of 10,000 cells were analyzed per condition.
Cell viability was typically assessed in 384-well format by Alamar Blue (Invitrogen) fluorescence (ex/em 530/590) measured on a Victor3 platereader (Perkin Elmer, Waltham, Mass.). In some experiments, Trypan Blue dye exclusion counting was performed using an automated cell counter (ViCell, Beckman-Coulter Inc., Brea, Calif.). Cell viability in test conditions is reported as a percentage relative to the negative control treatment. […]

A further experiment has as its system Calu-1 cells. The experiment is described as follows: Erastin-induced ferroptosis in Calu-1 cells, NOX pathway inhibitors. The class given is cell-based, human. The method, then:
Cell viability was typically assessed in 384-well format by Alamar Blue (Invitrogen) fluorescence (ex/em 530/590) measured on a Victor3 platereader (Perkin Elmer, Waltham, Mass.). In some experiments, Trypan Blue dye exclusion counting was performed using an automated cell counter (ViCell, Beckman-Coulter Inc., Brea, Calif.). Cell viability in test conditions is reported as a percentage relative to the negative control treatment.

In experiment [1] the test system is mouse kidney proximal tubules. The experiment is described as follows: Hydroxyquinoline + iron induced cell death in isolated mouse kidney proximal tubules (LDH release). The experiment is classed as cell-based. Conditions: 10 μM hydroxyquinoline and ferrous ammonium sulfate, 60 min. The protocol: Tubule preparation: 8-12 week old C57/BL6 female mice were euthanized with isoflurane. […] The cortices were then dissected and minced on an ice cold tile, then resuspended in additional Solution A for 8-10 min. of digestion at 37° C. followed by enrichment of proximal tubules using centrifugation on self-forming Percoll gradients as previously described for rabbit tubules.
Experimental procedures for isolated tubules: Tubules were suspended at 1.5-2.0 mg tubule protein/ml in a 95% air/5% CO2-gassed medium containing (in mM) 110 NaCl, 2.6 KCl, 25 NaHCO3, 2.4 KH2PO4, 1.25 CaCl2, 1.2 MgCl2, 1.2 MgSO4, 5 glucose, 4 sodium lactate, 0.3 alanine, 5 sodium butyrate, 2 glycine, and 1.0 mg/ml bovine gelatin (75 bloom) (Solution B). After precincubation for 15 min. at 37° C., then were then resuspended in fresh Solution B containing 2 mM heptanoic acid instead of sodium butyrate along with experimental compounds.
In addition, the efficacy of Fer-1, SRS11-92, and selected analogs was tested in a model of iron-induced cell death in freshly isolated mouse kidney proximal tubules that simulates major elements of rhabdomyolysis-induced acute kidney injury (FIG. 15C). Cell death in this model is known to involve oxidative lipid damage (Sogabe, et al., 1996, Park, et al., 2011); it was therefore believed that Fer-1 might be protective. 10 μM each of hydroxyquinoline and ferrous ammonium sulfate (HQ+Fe) were used to induce cell death, which was quantified by monitoring LDH release after 60 min. […] By implication, cell death in these models may involve, at least in part, the induction of lipid peroxidation and perhaps ferroptosis.
(LDH in the medium is a marker of cell lysis.)

The test system of experiment [2] is HT-1080, BJeLR and Calu-1 cells. The experiment is described as follows: Modulatory profiling of cell death inhibitors against erastin. To be noted: erastin 10 μM, 24 hours; 10-point, 4-fold dilution series. The experiment is classed as cell-based, human. The method, then:
The day before the experiment, cells were seeded in black, 384-well clear bottom plates (Corning) at a density of 1,000 cells/well using a Beckman Biomek FX Workstation. All compounds (except 3-methyladenine and chloroquine, which were diluted in water) were diluted in DMSO at 250 times the final highest test concentration, and aliquoted across a 384-well plate (Greiner, Monroe, N.C.). A ten-point, 4-fold dilution series of each inhibitor in DMSO was made using a multichannel pipette. Replicates of this mother plate were stored at −20° C. […] Medium was removed from cells and replaced with 36 μL medium containing DMSO (0.1%) or erastin (10 μM final concentration). Using the Biomek FX, 4 μL were then transferred from each inhibitor daughter plate into the DMSO-containing or erastin-containing assay plates. For 3-methyladenine and chloroquine, inhibitors were prepared fresh in media at 10-fold the final concentration in the presence of DMSO or 10 μM erastin. These solutions were manually pipetted onto cells in 384-well format. Assay plates were incubated at 37° C. for 24 hours. Viability was assessed using Alamar Blue.
The modulatory effect (Me) for drug-drug interactions was computed as follows. First, plate-based background correction was performed using Alamar Blue values from empty (cell-free) wells included on each plate. Next, within each experiment, 100% viability is determined as the average Alamar Blue score for cells treated with modulator=DMSO and lethal=DMSO, and all Alamar Blue values were scaled from 0 to 1 with the DMSO×DMSO condition=1. The individual effects of each modulator and lethal (e.g. in the presence of DMSO) at all tested doses were then ascertained. […] Next, BExp was compared to the actual observed viability. […] By default, Me in DMSO-treated cells is equal to 0. […] Me values for each inhibitor-lethal drug combination were hierarchically clustered and plotted as a heatmap using the heatmaps.2 function of the gplots library in R.

The subject of experiment [3] is freshly isolated renal tubules. The experiment is described as follows: LDH release from hypoxic freshly isolated renal tubules. The experiment is classed as cell-based, mouse. Conditions: Nec-1 50 μM, with or without glycine. The method, then: Six to 12 mice were used for each isolated tubule preparation, depending on the amount of material needed for particular experiments. For preparation of isolated tubules, mice were anesthetized with ketamine (100 mg/kg i.p.) and xylazine (10 mg/kg i.p.), and the kidneys were immediately removed. Type I collagenase was from Worthington Biochemical. Percoll was purchased from Amersham Biosciences. All other reagents and chemicals, including delipidated BSA, were of the highest grade available from Sigma-Aldrich. […] The cortices were then dissected and minced on an ice-cold tile and then resuspended in additional solution A for 8-10 min of digestion at 37° C., followed by enrichment of proximal tubules using centrifugation on self-forming Percoll gradients. For Nec-1 studies in renal tubules, renal cortices were dissected in ice-cold dissection solution (DS) [HBSS with 10 mmol/L glucose, 5 mmol/L glycine, 1 mmol/L alanine, 15 mmol/L Hepes (pH 7.4); osmolality, 325 mOsmol/L] and sliced into 1-mm pieces. The fragments were transferred to collagenase solution (DS with 0.1% (wt/vol) type 2 collagenase and 96 μg/mL soybean trypsin inhibitor) and digested for 30 min at 37° C. and 61×g. After digestion, the supernatant was sieved through two nylon sieves: first 250-μm pore size and then 100-μm pore size. […]

With `NC(=O)c1ccc(N)nc1` [Compound 6-AN, 6-aminonicotinamde], in the experiment on BJeLR cells, the “erastin-induced cell death and ROS production” value is “prevented cell death as well as ROS production”. The “suppression of erastin-induced ferroptosis” value in the experiment with Calu-1 cells was “strongly suppressed”.
For `CN1C(=O)C(Cc2c[nH]c3ccccc23)NC1=S` (centres unmarked) [necrostatin-1], in experiment [1], the “HQ+Fe induced lethality (LDH release)” value is “did not show any protection”. In addition, the “modulation of erastin-induced death” value in experiment [2] was “not consistently modulated”. Besides, the “LDH release from hypoxic renal tubules” value in experiment [3] was “no protection was detected”.

For the origin of these results see patent US11192849B2, “Compounds, compositions, and methods for modulating ferroptosis and treating excitotoxic disorders” (THE TRUSTEES OF COLUMBIA UNIVERSITY IN THE CITY OF NEW YORK, priority 2013, dated 2021).
